Measurements as given in US8574563B2 (Bristol-Myers Squibb Company, priority 2006, dated 2013).
Where two headings read alike, the source gives them in different places.

System: HCV 1b-377-neo replicon cells
Test: HCV replicon assay, HCV 1b-377-neo replicon cells (1b FRET)
Type: cell-based, Hepatitis C virus genotype 1b
Details: HCV 1b-377-neo replicon cells, HCV 1b genotype; for EC50: read-out: EC50 range against HCV 1b (Table 2, Range)
Summary of the method: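 FRET-based replicon assay in HCV 1b-377-neo cells, including a comparison line carrying the NS5A Y2065H mutation that confers resistance to a reference compound.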

SMILES | EC50 (Hepatitis C virus) | also measured
COC(=O)N[C@@H](C(=O)N1CCC[C@H]1c1ncc(-c2ccc(-c3ccc(-c4cnc([C@@H]5CCCN5C(=O)C(c5cccc(Cl)c5)N(C)C)[nH]4)cc3)cc2)[nH]1)c1ccccc1 (stereo partly drawn) [Example 84-57, methyl ((1R)-2-((2S)-2-(5-(4′-(2-((2S)-1-((3-chlorophenyl)(dimethylamino)acetyl)-2-pyrrolidinyl)-1H-imidazol-5-yl)-4-biphenylyl)-1H-imidazol-2-yl)-1-pyrrolidinyl)-2-oxo-1-phenylethyl)carbamate] | 0.001 to 0.999 nM | –
COC(=O)N[C@@H](C(=O)N1CCC[C@H]1c1ncc(-c2ccc(-c3ccc(-c4cnc([C@@H]5CCCN5C(=O)C(c5ccc(Cl)cc5)N(C)C)[nH]4)cc3)cc2)[nH]1)c1ccccc1 (stereo partly drawn) [Example 84-58, methyl ((1R)-2-((2S)-2-(5-(4′-(2-((2S)-1-((4-chlorophenyl)(dimethylamino)acetyl)-2-pyrrolidinyl)-1H-imdiazol-5-yl)-4-biphenylyl)-1H-imidazol-2-yl)-1-pyrrolidinyl)-2-oxo-1-phenylethyl)carbamate] | – | EC50: 0.001 to 0.999 nM
COC(=O)N[C@@H](C(=O)N1CCC[C@H]1c1ncc(-c2ccc(-c3ccc(-c4cnc([C@@H]5CCCN5C(=O)C(c5ccccc5F)N(C)C)[nH]4)cc3)cc2)[nH]1)c1ccccc1 (stereo partly drawn) [Example 84-59, methyl ((1R)-2-((2S)-2-(5-(4′-(2-((2S)-1-((dimethylamino)(2-fluorophenyl)acetyl)-2-pyrrolidinyl)-1H-imidazol-5-yl)-4-biphenylyl)-1H-imidazol-2-yl)-1-pyrrolidinyl)-2-oxo-1-phenylethyl)carbamate] | 0.001 to 0.999 nM | –
COC(=O)N[C@@H](C(=O)N1CCC[C@H]1c1ncc(-c2ccc(-c3ccc(-c4cnc([C@@H]5CCCN5C(=O)C(c5cccc(F)c5)N(C)C)[nH]4)cc3)cc2)[nH]1)c1ccccc1 (stereo partly drawn) [Example 84-60, methyl ((1R)-2-((2S)-2-(5-(4′-(2-((2S)-1-((dimethylamino)(3-fluorophenyl)acetyl)-2-pyrrolidinyl)-1H-imidazol-5-yl)-4-biphenylyl)-1H-imidazol-2-yl)-1-pyrrolidinyl)-2-oxo-1-phenylethyl)carbamate] | 0.001 to 0.999 nM | –
COC(=O)N[C@@H](C(=O)N1CCC[C@H]1c1ncc(-c2ccc(-c3ccc(-c4cnc([C@@H]5CCCN5C(=O)C(c5ccccn5)N(C)C)[nH]4)cc3)cc2)[nH]1)c1ccccc1 (stereo partly drawn) [Example 84-61, methyl ((1R)-2-((2S)-2-(5-(4′-(2-((2S)-1-((dimethylamino)(2-pyridinyl)acetyl)-2-pyrrolidinyl)-1H-imidazol-5-yl)-4-biphenylyl)-1H-imidazol-2-yl)-1-pyrrolidinyl)-2-oxo-1-phenylethyl)carbamate] | 0.001 to 0.999 nM | –
COC(=O)N[C@@H](C(=O)N1CCC[C@H]1c1nc(-c2ccc(-c3ccc(-c4cnc([C@@H]5CCCN5C(=O)C(c5cccnc5)N(C)C)[nH]4)cc3)cc2)c[nH]1)c1ccccc1 (stereo partly drawn) [Example 84-62, methyl ((1R)-2-((2S)-2-(4-(4′-(2-((2S)-1-((dimethylamino)(3-pyridinyl)acetyl)-2-pyrrolidinyl)-1H-imidazol-5-yl)-4-biphenylyl)-1H-imidazol-2-yl)-1-pyrrolidinyl)-2-oxo-1-phenylethyl)carbamate] | 0.001 to 0.999 nM | –
COC(=O)N[C@@H](C(=O)N1CCC[C@H]1c1ncc(-c2ccc(-c3ccc(-c4cnc([C@@H]5CCCN5C(=O)Cc5ccc(OC)cc5)[nH]4)cc3)cc2)[nH]1)c1ccccc1 [Example 84-63, methyl ((1R)-2-((2S)-2-(5-(4′-(2-((2S)-1-((4-methoxyphenyl)acetyl)-2-pyrrolidinyl)-1H-imidazol-5-yl)-4-biphenylyl)-1H-imidazol-2-yl)-1-pyrrolidinyl)-2-oxo-1-phenylethyl)carbamate] | 0.001 to 0.999 nM | –
COC(=O)N[C@@H](C(=O)N1CCC[C@H]1c1ncc(-c2ccc(-c3ccc(-c4cnc([C@@H]5CCCN5C(=O)Cc5cccc(OC)c5)[nH]4)cc3)cc2)[nH]1)c1ccccc1 [Example 84-64, methyl ((1R)-2-((2S)-2-(5-(4′-(2-((2S)-1-((3-methoxyphenyl)acetyl)-2-pyrrolidinyl)-1H-imidazol-5-yl)-4-biphenylyl)-1H-imidazol-2-yl)-1-pyrrolidinyl)-2-oxo-1-phenylethyl)carbamate] | 0.001 to 0.999 nM | –
COC(=O)N[C@@H](C(=O)N1CCC[C@H]1c1ncc(-c2ccc(-c3ccc(-c4cnc([C@@H]5CCCN5C(=O)Cc5ccccc5OC)[nH]4)cc3)cc2)[nH]1)c1ccccc1 [Example 84-65, methyl ((1R)-2-((2S)-2-(5-(4′-(2-((2S)-1-((2-methoxyphenyl)acetyl)-2-pyrrolidinyl)-1H-imidazol-5-yl)-4-biphenylyl)-1H-imidazol-2-yl)-1-pyrrolidinyl)-2-oxo-1-phenylethyl)carbamate] | – | EC50 range against HCV 1b (Table 2, Range): C-D
COC(=O)N[C@@H](C(=O)N1CCC[C@H]1c1ncc(-c2ccc(-c3ccc(-c4cnc([C@@H]5CCCN5C(=O)Cc5ccccc5Cl)[nH]4)cc3)cc2)[nH]1)c1ccccc1 [Example 84-66, methyl ((1R)-2-((2S)-2-(5-(4′-(2-((2S)-1-((2-chlorophenyl)acetyl)-2-pyrrolidinyl)-1H-imidazol-5-yl)-4-biphenylyl)-1H-imidazol-2-yl)-1-pyrrolidinyl)-2-oxo-1-phenylethyl)carbamate] | – | EC50 range against HCV 1b (Table 2, Range): C-D
COC(=O)N[C@@H](C(=O)N1CCC[C@H]1c1ncc(-c2ccc(-c3ccc(-c4cnc([C@@H]5CCCN5C(=O)Cc5cccc(Cl)c5)[nH]4)cc3)cc2)[nH]1)c1ccccc1 [Example 84-67, methyl ((1R)-2-((2S)-2-(5-(4′-(2-((2S)-1-((3-chlorophenyl)acetyl)-2-pyrrolidinyl)-1H-imidazol-5-yl)-4-biphenylyl)-1H-imidazol-2-yl)-1-pyrrolidinyl)-2-oxo-1-phenylethyl)carbamate] | 0.001 to 0.999 nM | –
COC(=O)N[C@@H](C(=O)N1CCC[C@H]1c1ncc(-c2ccc(-c3ccc(-c4cnc([C@@H]5CCCN5C(=O)Cc5ccc(Cl)cc5)[nH]4)cc3)cc2)[nH]1)c1ccccc1 [Example 84-68, methyl ((1R)-2-((2S)-2-(5-(4′-(2-((2S)-1-((4-chlorophenyl)acetyl)-2-pyrrolidinyl)-1H-imidazol-5-yl)-4-biphenylyl)-1H-imidazol-2-yl)-1-pyrrolidinyl)-2-oxo-1-phenylethyl)carbamate] | 1 to 99 nM | –
COC(=O)N[C@@H](C(=O)N1CCC[C@H]1c1ncc(-c2ccc(-c3ccc(-c4cnc([C@@H]5CCCN5C(=O)Cc5ccccc5C)[nH]4)cc3)cc2)[nH]1)c1ccccc1 [Example 84-69, methyl ((1R)-2-((2S)-2-(5-(4′-(2-((2S)-1-((2-methylphenyl)acetyl)-2-pyrrolidinyl)-1H-imidazol-5-yl)-4-biphenylyl)-1H-imidazol-2-yl)-1-pyrrolidinyl)-2-oxo-1-phenylethyl)carbamate] | 0.001 to 0.999 nM | –
COC(=O)N[C@@H](C(=O)N1CCC[C@H]1c1ncc(-c2ccc(-c3ccc(-c4cnc([C@@H]5CCCN5C(=O)Cc5ccc(C)cc5)[nH]4)cc3)cc2)[nH]1)c1ccccc1 [Example 84-70, methyl ((1R)-2-((2S)-2-(5-(4′-(2-((2S)-1-((4-methylphenyl)acetyl)-2-pyrrolidinyl)-1H-imidazol-5-yl)-4-biphenylyl)-1H-imidazol-2-yl)-1-pyrrolidinyl)-2-oxo-1-phenylethyl)carbamate] | 1 to 99 nM | –
COC(=O)N[C@@H](C(=O)N1CCC[C@H]1c1ncc(-c2ccc(-c3ccc(-c4cnc([C@@H]5CCCN5C(=O)Cc5cccc(C)c5)[nH]4)cc3)cc2)[nH]1)c1ccccc1 [Example 84-71, methyl ((1R)-2-((2S)-2-(5-(4′-(2-((2S)-1-((3-methylphenyl)acetyl)-2-pyrrolidinyl)-1H-imidazol-5-yl)-4-biphenylyl)-1H-imidazol-2-yl)-1-pyrrolidinyl)-2-oxo-1-phenylethyl)carbamate] | 1 to 99 nM | –
COC(=O)N[C@@H](C(=O)N1CCC[C@H]1c1ncc(-c2ccc(-c3ccc(-c4cnc([C@@H]5CCCN5C(=O)Cc5csc(C)n5)[nH]4)cc3)cc2)[nH]1)c1ccccc1 [Example 84-72, methyl ((1R)-2-((2S)-2-(5-(4′-(2-((2S)-1-((2-methyl-1,3-thiazol-4-yl)acetyl)-2-pyrrolidinyl)-1H-imidazol-5-yl)-4-biphenylyl)-1H-imidazol-2-yl)-1-pyrrolidinyl)-2-oxo-1-phenylethyl)carbamate] | 1 to 99 nM | –
COC(=O)N[C@@H](C(=O)N1CCC[C@H]1c1ncc(-c2ccc(-c3ccc(-c4cnc([C@@H]5CCCN5C(=O)Cc5ccsc5)[nH]4)cc3)cc2)[nH]1)c1ccccc1 [Example 84-73, methyl ((1R)-2-oxo-1-phenyl-2-((2S)-2-(5-(4′-(2-((2S)-1-(3-thienylacetyl)-2-pyrrolidinyl)-1H-imidazol-5-yl)-4-biphenylyl)-1H-imidazol-2-yl)-1-pyrrolidinyl)ethyl)carbamate] | 1 to 99 nM | –
COC(=O)N[C@@H](C(=O)N1CCC[C@H]1c1ncc(-c2ccc(-c3ccc(-c4cnc([C@@H]5CCCN5C(=O)Cc5cc(C)no5)[nH]4)cc3)cc2)[nH]1)c1ccccc1 [Example 84-74, methyl ((1R)-2-((2)S-2-(5-(4′-(2-((2S)-1-((3-methyl-5-isoxazolyl)acetyl)-2-pyrrolidinyl)-1H-imidazol-5-yl)-4-biphenylyl)-1H-imidazol-2-yl)-1-pyrrolidinyl)-2-oxo-1-phenylethyl)carbamate] | – | EC50: 0.001 to 0.999 nM
COC(=O)N[C@@H](C(=O)N1CCC[C@H]1c1ncc(-c2ccc(-c3ccc(-c4cnc([C@@H]5CCCN5C(=O)CC5CCCCC5)[nH]4)cc3)cc2)[nH]1)c1ccccc1 [Example 84-75, methyl ((1R)-2-((2S)-2-(5-(4′-(2-((2S)-1-(cyclohexylacetyl)-2-pyrrolidinyl)-1H-imidazol-5-yl)-4-biphenylyl)-1H-imidazol-2-yl)-1-pyrrolidinyl)-2-oxo-1-phenylethyl)carbamate] | 1 to 99 nM | –
